Measured values published in PubChem BioAssay AID651865 (The Scripps Research Institute Molecular Screening Center, 2012).

Target: Protein-arginine deiminase type-2 (Homo sapiens) (UniProt Q9Y2J8)
Assay: PubChem AID 651865
Conditions: recombinant PAD2, BAEE citrulline colorimetric, inactivation kinetics; stronger effect = higher value

Sequence of Protein-arginine deiminase type-2 (Homo sapiens) (Q9Y2J8 whole entry, looked up): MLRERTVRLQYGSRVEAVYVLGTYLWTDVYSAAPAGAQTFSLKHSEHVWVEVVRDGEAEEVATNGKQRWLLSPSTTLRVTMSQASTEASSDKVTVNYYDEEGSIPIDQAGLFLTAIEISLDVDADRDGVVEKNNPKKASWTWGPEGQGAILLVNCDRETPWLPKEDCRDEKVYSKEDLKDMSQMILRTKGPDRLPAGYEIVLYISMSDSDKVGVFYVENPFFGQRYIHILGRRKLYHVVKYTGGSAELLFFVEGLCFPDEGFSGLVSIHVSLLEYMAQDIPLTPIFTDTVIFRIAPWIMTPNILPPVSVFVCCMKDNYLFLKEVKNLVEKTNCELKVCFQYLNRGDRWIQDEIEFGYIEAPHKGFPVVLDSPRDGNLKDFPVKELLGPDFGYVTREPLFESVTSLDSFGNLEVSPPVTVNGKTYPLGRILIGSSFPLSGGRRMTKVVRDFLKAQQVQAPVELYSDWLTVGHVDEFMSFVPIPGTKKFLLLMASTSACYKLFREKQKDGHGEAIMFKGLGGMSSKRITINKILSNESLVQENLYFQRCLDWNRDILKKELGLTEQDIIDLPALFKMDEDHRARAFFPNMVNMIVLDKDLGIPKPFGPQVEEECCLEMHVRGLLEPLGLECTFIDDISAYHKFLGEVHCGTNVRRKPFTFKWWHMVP

kinact/KI: 122 M⁻¹ s⁻¹
SMILES: NC1=CC(=O)c2ccc(-c3cccc(C(=O)O)n3)nc2C1=O
